From paper PMC5650142, “GPR40 partial agonists and AgoPAMs: Differentiating effects on glucose and hormonal secretions in the rodent” (PLoS ONE, 2017)
Several values for one entry are separate records, joined by “and”; a condition that tells them apart may be missing. Equal entries are not always repeated. Where two headings read alike, the source gives them in different places.

What was measured:
human GPR40 [1] = target: T1, human GPR40 (Homo sapiens, UniProt O14842); experiment: Human GPR40 IP1 accumulation assay; assay type: cell-based; set-up: expressed in transfected cells
T1 sequence (O14842 whole entry): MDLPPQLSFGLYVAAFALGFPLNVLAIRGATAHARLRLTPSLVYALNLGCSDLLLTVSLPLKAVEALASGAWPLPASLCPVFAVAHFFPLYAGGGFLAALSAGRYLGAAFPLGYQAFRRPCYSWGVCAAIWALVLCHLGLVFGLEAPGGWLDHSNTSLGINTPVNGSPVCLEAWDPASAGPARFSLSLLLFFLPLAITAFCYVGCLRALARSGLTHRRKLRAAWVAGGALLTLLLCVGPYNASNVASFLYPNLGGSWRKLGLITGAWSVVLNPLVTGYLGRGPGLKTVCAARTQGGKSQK
Method: (§1) Stable cell lines expressing human GPR40 (hGPR40/HEK293), mouse GPR40 (mGPR40/CHO-K1), and rat GPR40 (rGPR40/CHO-K1) were cultured in DMEM media supplemented with 10% FBS, glutamine, non-essential amino acids, and penicillin/streptomycin. hGPR40/HEK293 & mGPR40/CHO-K1 cell media was supplemented with […] G418 (Life Technologies), while rGPR40/CHO-K1 cells were grown in […] blasticidin plus […] hygromycin (Life Technologies). Cell stocks were maintained and grown in a sub-confluent state using standard cell culture procedures. The day before the experiment, the cells were harvested with non-enzymatic cell dissociation buffer and re-suspended in DMEM supplemented with 10% FBS, glutamine, non-essential amino acids, penicillin/streptomycin at 0.15, 0.2 and 0.3 million cells per ml for human, mouse, and rat GPR40, respectively. […] The seeded plates were incubated overnight at 37 C.
(§2) On the day of the experiment, the growth media was removed from the assay by gently patting the assay plates on an absorbent sheet and 10 μl of IP1 stimulation buffer (Cis Bio IP-one Tb HTRF kit) supplemented with 50 mM LiCl is added to each well. Test compounds dissolved in DMSO were serially diluted in ½ log increments starting from 2 mM or 0.2 mM and 50 nl of the compound dilution was acoustically added to each well (final starting concentration 10 μM or 1 μM). Plates were then incubated for 60 minutes at room temperature and 10 μl of detection buffer (prepared as described in the Tb kit) is added to each well. The plates are then incubated one additional hour at room temperature. […] For each assay, a standard curve plate in which IP1 is titrated is also included. […] The percent activity at each concentration of test compound is determined using 0% activation (basal activity) determined in those wells that contain DMSO alone, while 100% activity is determined in wells that contained a concentration of a partial allosteric agonist know to activate GPR40. The % activity is then plotted versus the concentration of test compound and the dose response curve fitted to a standard 4-parameter non-linear regression model using a custom in-house developed software package (Merck & Co., Inc., MRL, Kenilworth, NJ, USA). Maximal % activity and EC50 are then determined for each test compound.

mouse GPR40 = target: T2, mouse GPR40 (Mus musculus, UniProt Q76JU9); experiment: Mouse GPR40 IP1 accumulation assay; assay type: cell-based
T2 construct: expressed in transfected cells; host or cells: CHO-K1 (methods)
T2 sequence (Q76JU9 whole entry): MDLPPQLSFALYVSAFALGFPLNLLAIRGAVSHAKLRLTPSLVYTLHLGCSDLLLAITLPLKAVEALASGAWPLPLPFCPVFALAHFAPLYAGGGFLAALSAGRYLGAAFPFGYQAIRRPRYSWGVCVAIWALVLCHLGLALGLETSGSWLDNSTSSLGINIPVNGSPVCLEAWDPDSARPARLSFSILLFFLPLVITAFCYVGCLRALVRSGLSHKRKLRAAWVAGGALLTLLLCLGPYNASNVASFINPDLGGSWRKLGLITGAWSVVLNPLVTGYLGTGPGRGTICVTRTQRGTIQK
Method: as §1, §2

human GPR40 [2] = target: T1, human GPR40; experiment: GPR40 binding assay, partial agonist tracer [3H]L358; set-up: expressed in transfected cells; host or cells: CHO / CHO-K1 cells, membrane preparation; settings: radioligand L-001533358;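 as to %Bound: 100% is tracer binding with DMSO alone and 0% is full displacement by a standard compound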
Method: Two small molecule tracers, the partial agonist [3H][…] and the AgoPAM [3H]25, are used to measure compound affinity at each site as described previously. Because of the allosteric coupling of the two sites and the nature of the assay, addition of a compound will either displace (binds to same site) or augment (binds to allosterically coupled site) radiotracer. Membranes expressing GPR40 were prepared from CHO cells stably expressing human GPR40. […] Sigma P8830) and were homogenized in 50 ml aliquots with a motor-driven glass Dounce homogenizer, 15 strokes at 1900 rpm on wet ice, repeating once. Homogenates were centrifuged at 2200 rpm for 10 min at 4°C. Supernatants were carefully removed and pooled. Homogenization and centrifugation were repeated until the debris pellet was translucent to maximize membrane recovery. Supernatants were then centrifuged at […] rpm for 20 min. at 4°C. […] Protein concentration was determined by Pierce BCA kit. […] The beads and membrane mixture is then vigorously mixed for 30 minutes at room temperature prior to addition to the assay. […] Next, 15 μl of the radioligand and 35 μl of the beads/membranes solution is added to each well. The assay plates are then sealed and incubated for 30 minutes at room temperature on an orbital shaker. The plates are allowed to settle for 16 hours and then counted on a TopCount scintillation counter (PE). […] Maximal % bound and IC50 are then determined for each test compound. 5 μg/well membrane together with 200 μg/well of PVT WGA SPA beads (GE #RPNG-0001) were suspended in a white 96 well plate with a final concentration of 50 μl/well in assay buffer (50 mM Tris, 10 mM MgCl2, and 2 mM EDTA). […] The plate is briefly mixed and incubated for 3-18 h at room temperature, before it is read on a MicroBeta plate counter (Perkin Elmer, MS, USA).

rat GPR40 = target: T3, rat GPR40 (Rattus norvegicus, UniProt Q8K3T4); experiment: Rat GPR40 IP1 accumulation assay; assay type: cell-based
T3 construct: expressed in transfected cells; host or cells: CHO-K1 (methods)
T3 sequence (Q8K3T4 whole entry): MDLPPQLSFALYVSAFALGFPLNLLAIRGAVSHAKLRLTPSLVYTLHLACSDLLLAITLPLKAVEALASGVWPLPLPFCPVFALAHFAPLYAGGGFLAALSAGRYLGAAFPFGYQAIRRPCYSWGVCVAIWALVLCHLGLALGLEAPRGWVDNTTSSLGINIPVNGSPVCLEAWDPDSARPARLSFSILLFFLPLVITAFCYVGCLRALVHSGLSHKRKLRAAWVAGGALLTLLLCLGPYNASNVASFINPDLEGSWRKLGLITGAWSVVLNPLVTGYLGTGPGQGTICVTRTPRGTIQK
Method: as §1, §2

[3] = maximal % activity vs in-house partial agonist control

Human GPR40 Receptor Activation (%) (human GPR40 [1]; dose 2.00E-06 M): 237%
Human GPR40 Receptor Activation (%) (human GPR40 [1]; dose 2.00E-07 M): 246%
Human GPR40 Receptor Activation (%) (human GPR40 [1]; dose 2.00E-08 M): 186%
Human GPR40 Receptor Activation (%) (human GPR40 [1]; dose 2.00E-09 M): 90%
Human GPR40 Receptor Activation (%) (human GPR40 [1]; dose 2.00E-10 M): 5.57%
Human GPR40 Receptor Activation (%) (human GPR40 [1]; dose 6.00E-07 M): 204%
Human GPR40 Receptor Activation (%) (human GPR40 [1]; dose 6.00E-08 M): 223%
Human GPR40 Receptor Activation (%) (human GPR40 [1]; dose 6.00E-09 M): 129%
Human GPR40 Receptor Activation (%) (human GPR40 [1]; dose 6.00E-10 M): 27%
Human GPR40 Receptor Activation (%) (human GPR40 [1]; dose 6.00E-11 M): -7%
EC50 (human GPR40 [1]; individual replicates (n), read-out: HUMAN GPR40 Functional Assay EC50): 3.7 nM and 4.2 nM and 7.3 nM and 1.3 nM and 2.4 nM and 3.6 nM
Efficacy (% Activation), Human (human GPR40 [1]; [3]): (200%)
EC50 (human GPR40 [1]; mean ± SD, n = 2–20, IP accumulation, read-out: Potency [EC50, nM] ± SD, Human): 3.7 ± 1.9 nM
Mouse GPR40 Receptor Activation (%) (mouse GPR40; dose 1.00E-06 M): 394%
Mouse GPR40 Receptor Activation (%) (mouse GPR40; dose 1.50E-11 M): -7%
Mouse GPR40 Receptor Activation (%) (mouse GPR40; dose 1.56E-08 M): 156%
Mouse GPR40 Receptor Activation (%) (mouse GPR40; dose 2.44E-10 M): 2.81%
Mouse GPR40 Receptor Activation (%) (mouse GPR40; dose 2.50E-07 M): 318%
Mouse GPR40 Receptor Activation (%) (mouse GPR40; dose 3.91E-09 M): 67%
Mouse GPR40 Receptor Activation (%) (mouse GPR40; dose 4.00E-12 M): -8.43%
Mouse GPR40 Receptor Activation (%) (mouse GPR40; dose 6.10E-11 M): 3.63%
Mouse GPR40 Receptor Activation (%) (mouse GPR40; dose 6.25E-08 M): 254%
Mouse GPR40 Receptor Activation (%) (mouse GPR40; dose 9.77E-10 M): 19%
Mouse GPR40 Functional Assay %Act (mouse GPR40; individual replicates (n)): 406% and 397%
EC50 (mouse GPR40; individual replicates (n), read-out: Mouse GPR40 Functional Assay EC50): 44 nM and 28 nM
Efficacy (% Activation), Mouse (mouse GPR40; [3]): (402%)
EC50 (mouse GPR40; mean ± SD, n = 2–20, IP accumulation, read-out: Potency [EC50, nM] ± SD, Mouse): 36 ± 11 nM
% Bound Normalized to 100 (human GPR40 [2]; dose 0.318285 nM): 102.20%
%Bound (human GPR40 [2]; dose 0.318285 nM): 108.18%
% Bound Normalized to 100 (human GPR40 [2]; dose 1.00578 nM): 103.34%
%Bound (human GPR40 [2]; dose 1.00578 nM): 109.31%
% Bound Normalized to 100 (human GPR40 [2]; dose 3.17827 nM): 130.10%
%Bound (human GPR40 [2]; dose 3.17827 nM): 136.07%
% Bound Normalized to 100 (human GPR40 [2]; dose 10.0433 nM): 137.50%
%Bound (human GPR40 [2]; dose 10.0433 nM): 143.47%
% Bound Normalized to 100 (human GPR40 [2]; dose 31.7369 nM): 182.19%
%Bound (human GPR40 [2]; dose 31.7369 nM): 188.17%
% Bound Normalized to 100 (human GPR40 [2]; dose 100.289 nM): 189.31%
%Bound (human GPR40 [2]; dose 100.289 nM): 195.29%
% Bound Normalized to 100 (human GPR40 [2]; dose 316.912 nM): 199.27%
%Bound (human GPR40 [2]; dose 316.912 nM): 205.25%
% Bound Normalized to 100 (human GPR40 [2]; dose 1001.44 nM): 201.84%
%Bound (human GPR40 [2]; dose 1001.44 nM): 207.81%
% Bound Normalized to 100 (human GPR40 [2]; dose 3164.56 nM): 204.40%
%Bound (human GPR40 [2]; dose 3164.56 nM): 210.37%
% Bound Normalized to 100 (human GPR40 [2]; dose 10000 nM): 189.59%
%Bound (human GPR40 [2]; dose 10000 nM): 195.57%
Rat GPR40 Receptor Activation (%) (rat GPR40; dose 1.00E-06 M): 370%
Rat GPR40 Receptor Activation (%) (rat GPR40; dose 1.50E-11 M): -18%
Rat GPR40 Receptor Activation (%) (rat GPR40; dose 1.56E-08 M): 132%
Rat GPR40 Receptor Activation (%) (rat GPR40; dose 2.44E-10 M): 11%
Rat GPR40 Receptor Activation (%) (rat GPR40; dose 2.50E-07 M): 361%
Rat GPR40 Receptor Activation (%) (rat GPR40; dose 3.91E-09 M): 23%
Rat GPR40 Receptor Activation (%) (rat GPR40; dose 4.00E-12 M): -6%
Rat GPR40 Receptor Activation (%) (rat GPR40; dose 6.10E-11 M): 2%
Rat GPR40 Receptor Activation (%) (rat GPR40; dose 6.25E-08 M): 275%
Rat GPR40 Receptor Activation (%) (rat GPR40; dose 9.77E-10 M): 18%
Rat GPR40 Functional Assay %Act (rat GPR40; individual replicates (n)): 380% and 366%
EC50 (rat GPR40; individual replicates (n), read-out: Rat GPR40 Functional Assay EC50): 26 nM and 56 nM
Efficacy (% Activation), Rat (rat GPR40; [3]): (373%)
EC50 (rat GPR40; mean ± SD, n = 2–20, IP accumulation, read-out: Potency [EC50, nM] ± SD, Rat): 41 ± 21 nM
SMILES: COc1ccc(F)c(-c2ccc(COc3cccc([C@@H](CC(=O)O)C4CC4)c3)cc2C2=CCCC2(C)C)c1 [AM-1638, reference compound]
HUMAN GPR40 Functional Assay %Act (human GPR40 [1]; individual replicates (n)): 245% and 240% and 164% and 211% and 215% and 163%
